Results: patent US20160368919A1, “NOVEL PYRIDINE PYRAZINONES AS BET-FAMILY BROMODOMAIN INHIBITORS” (Pfizer Inc., priority 2015, published 2016)
pIC50: −log10 of the molar value.

Key:
[1] = tested on: DU-145 cells, AR(−); test: CRPC cell proliferation assay (CellTiter-Glo), DU-145; format: cell-based; settings: CTG at 96h; for pIC50: Homo sapiens
Procedure: (§1) Castrate-Resistant Prostate Cancer (CRPC) Cell Proliferation Assay • Cells were seeded into 96-well plates at 2,000-10,000 cells/well in 100 uL medium. Four AR(+) cell lines (LnCaP, C4-2 (parental), C4-2AR-WT and C4-2AR—F876L) and one AR(−) cell line (DU-145) were studied. Compound treated cells were analyzed for cell density at 96h, using CellTiter-Glo® (CTG) reagent (Promega).

[2] = tested on: LnCaP cells, AR(+); test: CRPC cell proliferation assay (CellTiter-Glo), LnCaP; format: cell-based; settings: CTG at 96h; for pIC50: Homo sapiens
Procedure: as §1

[3] = tested on: C4-2AR-F876L cells, AR(+); test: CRPC cell proliferation assay (CellTiter-Glo), C4-2AR-F876L; format: cell-based; settings: CTG at 96h
Procedure: as §1

[4] = tested on: LPS-induced IL-6 production in human whole blood; test: IL-6 human whole blood (HWB) assay, LPS-stimulated, HTRF detection; format: cell-based; settings: 1 ng/ml LPS, 4 hours
[5] = tested on: C4-2 (parental) cells, AR(+); test: CRPC cell proliferation assay (CellTiter-Glo), C4-2; format: cell-based; settings: CTG at 96h
Procedure: as §1

[6] = tested on: C4-2AR-WT cells, AR(+); test: CRPC cell proliferation assay (CellTiter-Glo), C4-2AR-WT; format: cell-based; settings: CTG at 96h
Procedure: as §1

[7] = tested on: MM1.S cells; test: MM1.S cell proliferation assay (CellTiter-Glo); format: cell-based; settings: for pIC50: MM1.S, CTG at 96h; for inhibition of proliferation of MM1.S cells: dose dependent manner, FIG. 1.A
Procedure: (§2) MM1.S (dexamethasone sensitive) and OPM-2 cells were purchased from ATCC and maintained in RPMI-1640 medium with 10% fetal bovine serum at 37 degrees, 5% CO2. Cells were seeded at 10,000 cells/well in 100 uL medium. The following day compounds or control vehicle (DMSO) were added at indicated concentrations in 10 ul volume. Compound treated OPM-2 cells and MM1.S cell were analyzed for cell density at 72h and 96h, respectively, using CellTiter-Glo® (CTG) reagent (Promega). The CTG assay measures the amount of ATP present, which indicates the number of viable cells in culture.

[8] = tested on: OPM-2 cells; test: OPM-2 cell proliferation assay (CellTiter-Glo); format: cell-based; settings: for pIC50: OPM-2, CTG at 72h; for inhibition of proliferation of OPM-2 cells: dose dependent manner, FIG. 1.B
Procedure: as §2

[9] = biological target: T1, BRD4 BD1 (Homo sapiens, UniProt O60885); test: BRD4 BD1 Fluorescence Polarization (FP) competition binding assay; settings: BRD4 BD1 40 nM, probe PFI-411FP 2 nM
T1 construct: His-tagged BRD4 BD1 (44-160); made in house
Method in brief: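 BRD4 BD1 (40 nM) preincubated 15 min at 20° C. with compound (120 to 0.0012 μM) in HEPES pH 7.4 with 0.08% BSA, then 2 nM PFI-411FP tracer added for 60 min. Fluorescence polarization read (ex 620/em 688 nm); IC50 from four-parameter fit, converted to Ki via Nikolovska-Coleska equation.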

[10] = tested on: MYC, SOX2, involucrin and Keratin 14 expression in HCC2429 cells; test: Biomarker analysis in HCC2429 cells (RT-PCR, Western blot); format: cell-based; settings: for mRNA expression of involucrin: HCC2429, RT-PCR, 72 hours, 50 nM, 200 nM and 500 nM, dose dependent; for MYC protein level / SOX2 protein level: HCC2429, Western blot, 72 hrs, concentration-dependent
Procedure: HCC2429 cells were plated into a 6-well plate (250,000 cells/well). Cells were treated with compounds or control vehicle (DMSO) at the indicated concentrations for 72 hrs. Cells were collected, washed in PBS, and split for western blot and RNA analysis.

[11] = tested on: HCC2429 cells; test: NMC HCC2429 cell proliferation assay (CellTiter-Glo); format: cell-based; settings: HCC2429, CTG at 96h
Procedure: NMC HCC2429 Cell Proliferation Assay • HCC2429 cells were plated into a 96-well plate (10,000 cells/well). Compounds or control vehicle (DMSO) were added at indicated concentrations. Compound-treated HCC2429 cells were analyzed for cell density at 96h using CellTiter-Glo® (CTG) reagent (Promega).

[12] = tested on: CRPC cell lines (LnCaP, C4-2, C4-2AR-WT, C4-2AR-F876L, DU-145); test: CRPC cell proliferation assay, summary over the cell lines; format: cell-based
Procedure: Castrate-Resistant Prostate Cancer (CRPC) Cell Proliferation Assay • Cells were seeded into 96-well plates at 2,000-10,000 cells/well in 100 uL medium. Four AR(+) cell lines (LnCaP, C4-2 (parental), C4-2AR-WT and C4-2AR—F876L) and one AR(−) cell line (DU-145) were studied. Compound treated cells were analyzed for cell density at 96h, using CellTiter-Glo® (CTG) reagent (Promega). […] Example 10 and IBET-151 BET had submicromolar IC50 values in the AR(+) cell lines. The inhibitors maintained potency in C4-2 cells engineered to express wild type (WT) AR receptor (C4-2-AR-WT), as well as cells engineered to express the F876L mutation (C4-2-AR-F876L) that confers resistance to androgen receptor (AR) antagonists.

CC[C@H](COC)n1c(=O)c(NCCC(=O)O)nc2ccc(-c3c(C)noc3C)nc21 [Example 47, N-{6-(3,5-dimethyl-1,2-oxazol-4-yl)-4-[(2R)-1-methoxybutan-2-yl]-3-oxo-3,4-dihydropyrido[2,3-b]pyrazin-2-yl}-beta-alanine]
Max % Inh [1]: 43%
pIC50 [1]: < 5.30
Max % Inh [2]: 62%
pIC50 [2]: < 5.30
pIC50 [3]: < 5.30
Max % Inh [3]: 81%
pIC50 [4]: 5.21
pIC50 [5]: < 5.30
Max % Inh [5]: 80%
pIC50 [6]: < 5.30
Max % Inh [6]: 82%
pIC50 ([7]; Homo sapiens): 7.41
inhibition of proliferation of MM1.S cells [7]: inhibited proliferation
pIC50 ([8]; Homo sapiens): 6.80
inhibition of proliferation of OPM-2 cells [8]: inhibited proliferation
pIC50 [9]: 6.71

CCNC(=O)C[C@@H]1N=C(c2ccc(Cl)cc2)c2cc(OC)ccc2-n2c(C)nnc21 [IBET-762]
mRNA expression of involucrin [10]: increased
MYC protein level [10]: down-regulated
SOX2 protein level [10]: down-regulated
pIC50 ([11]; Homo sapiens): 7.07
pIC50 ([7]; Homo sapiens): 7.92
inhibition of proliferation of MM1.S cells [7]: inhibited proliferation
pIC50 ([8]; Homo sapiens): 7.52
inhibition of proliferation of OPM-2 cells [8]: inhibited proliferation

Cc1sc2c(c1C)C(c1ccc(Cl)cc1)=N[C@@H](CC(=O)OC(C)(C)C)c1nnc(C)n1-2 [JQ1(+)]
mRNA expression of involucrin [10]: increased
MYC protein level [10]: down-regulated
SOX2 protein level [10]: down-regulated
pIC50 [11]: 7.36
pIC50 [7]: 7.96
inhibition of proliferation of MM1.S cells [7]: inhibited proliferation
pIC50 [8]: 8.05
inhibition of proliferation of OPM-2 cells [8]: inhibited proliferation

CNC(=O)c1ccc(N2C(=S)N(c3ccc(C#N)c(C(F)(F)F)c3)C(=O)C2(C)C)cc1F [MDV3100, reference compound]
Max % Inh [1]: 23%
Max % Inh [2]: 43%
Max % Inh [3]: 44%
Max % Inh [5]: 33%
Max % Inh [6]: 39%
activity on cell proliferation ([12]; short-term assay, compared with the BET inhibitors): weaker activity

COc1cc2c(cc1-c1c(C)noc1C)ncc1[nH]c(=O)n([C@H](C)c3ccccn3)c12 [i-BET151, reference compound]
Max % Inh [1]: 74%
pIC50 [1]: 5.95
Max % Inh [2]: 78%
pIC50 [2]: 6.40
pIC50 [3]: 6.33
Max % Inh [3]: 90%
pIC50 [5]: 6.31
Max % Inh [5]: 90%
pIC50 [6]: 6.37
Max % Inh [6]: 92%
IC50 values in the AR(+) cell lines ([12]; AR(+) cell lines, CTG at 96h): submicromolar
